Data published in patent US20190092720A1, “FUNCTIONALIZED BENZAMIDE DERIVATIVES AS ANTIVIRAL AGENTS AGAINST HBV INFECTION” (BARUCH S. BLUMBERG INSTITUTE, priority 2012, published 2019).

Key:
Type in all cases: cell-based, Hepatitis B virus (HBV)
[1] = system: HBV replication in HepDES19 cells; test: Antiviral activity in HepDES19 cells (core-associated HBV DNA, Southern blot); settings: Hepatitis B virus, HepDES19, 144 h, concentration that reduces core-associated HBV DNA by 50%; 6 days; serial dilution 10 μM to 0.018 μM
Excerpt: Determination of antiviral activity of compounds of the disclosure, as presented in Table 1, in human hepatoma-derived cell lines: To further confirm the antiviral activity of the compounds of the disclosure against HBV in human hepatocyte-derived cells, HepDES19 cells, a human hepatoma cell line supporting HBV replication in a tetracycline inducible manner (Guo et al., 2007), seeded into 12-well plates at a density of 5×10^5 cells per well and cultured in DMEM/F12 media with 10% fetal bovine serum and 1 μg/ml tetracycline. Two days after seeding, the cells were mock-treated or treated with a serial dilution of compounds of the disclosure, ranging from 10 μM to 0.018 μM, for 6 days in the absence of tetracycline. Upon the completion of treatment, cells were lysed by adding into each well of the 12-well plates 0.5 ml of lysis buffer containing 10 mM Tris-HCl (pH 8.0), 1 mM EDTA, 1% NP40 and 2% sucrose and incubating at 37° C. for 10 minutes. Cell debris and nuclei were removed by centrifugation and the supernatant was mixed with 130 μl of 35% polyethylene glycol (PEG) 8000 containing 1.5 M NaCl. After 1 hour incubation in ice, viral nucleocapsids were pelleted by centrifugation at 6,000×g for 5 min at 4° C., followed by 1 hour digestion at 37° C. in 400 μl of digestion buffer containing 0.5 mg/ml pronase (Calbiochem), 0.5% SDS, 150 mM NaCl, 25 mM Tris-HCl (pH 8.0) and 10 mM EDTA. The digestion mixture was extracted twice with phenol and DNA was precipitated with ethanol, dissolved in TE buffer (10 mM Tris-HCl, pH 8.0; 0.1 mM EDTA). One half of the DNA sample from each well was resolved by electrophoresis into a 1.5% agarose gel. The gel was then subjected to denaturation in a solution containing 0.5 M NaOH and 1.5 M NaCl, followed by neutralization in a buffer containing 1 M Tris-HCl (pH7.4) and 1.5 M NaCl. DNA was then blotted onto Hybond-XL membrane (GE Health care) in 20×SSC buffer. The amounts of cytoplasmic HBV core-associated HBV DNA were determined by Southern blot hybridization and the antiviral efficacy of a compound was expressed as its concentration that reduce the amount of HBV DNA by 50% (EC50) or 90% (EC90).

HBV capsids = test: Particle gel assay of nucleocapsids in AML12HBV10 cells; settings: 2 days, FIG. 1 panel B
Method: FIG. 1. Antiviral mechanism of the compounds of the present invention. AML12HBV10 cells were left untreated (NT) or treated with the indicated concentrations of the compounds of the disclosure Compound 6 and Compound 19, respectively, for 2 days. Bay-4109 (3 µM) or AT-61 (25 µM) served as positive controls. (A) Intracellular viral RNA was determined by Northern blot hybridization. Ribosomal RNA served as a loading control. (B) The total amounts of nucleocapsids were determined by a particle gel assay. (C) Encapsidated pgRNA were extracted and measured by Northern blot. (D) Nucleocapsid-associated HBV DNA was quantified by alkaline-treatment of nucleocapsids on the membrane following the particle gel assay and hybridized with a HBV-specific riboprobe. (E) HBV DNA replication intermediates were extracted and determined by Southern blot hybridizations.
Procedures of viral capsids and nucleocapsid-associated DNA analysis: AML12HB10 cells were lysed by addition of 300 μl buffer containing 10 mM Tris-HCl (pH7.6), 100 mM NaCl, 1 mM EDTA and 0.1% NP-40 to each well of 12-well plate. Cell debries were removed by centrifugation at 5000 g for 10 minutes. Ten microliters of the clarified cell lysates were fractionated by electrophoresis through nondenaturing 1% agarose gels and transferred to a nitrocellulose filter by blotting with TNE buffer (10 mM Tris-HCl, pH7.6; 150 mM NaCl and 1 mM EDTA). HBV capsids were detected by probing the membrane with an antibody against HBV core protein (DAKO). […] To detect capsid associated HBV DNA, the membrane were treated with buffer containing 0.5N NaOH and 1.5 M NaCl for 5 minutes and followed by neutralization with buffer containing 1 M TRIS-HCl and 1.5M NaCl for 5 minutes. The viral DNA was detected by hybridization with a α-^32P-UTP (800 Ci/mmol, Perkin Elmer) labeled minus strand specific full-length HBV riboprobe (Xu et al.).

[2] = system: HBV replication in AML12HBV10 cells; test: Antiviral efficacy in AML12HBV10 cells (HBV DNA dot-blot hybridization); settings: Hepatitis B virus, AML12HBV10, 48 h, read-out: AML12HBV10 EC50, concentration that reduces the amount of HBV DNA by 50%, serial dilution 50 μM to 0.39 μM
Method: The HBV replication inhibitors of the present invention are capable of treating and preventing diseases associated with HBV infection.
The antiviral efficacy of the compounds of the disclosure, as presented in Table 1, were determined in AML12HBV10 cells. AML12HBV10 is an immortalized murine hepatocyte (AML12)-derived stable cell line that supports robust HBV replication in a tetracycline inducible manner (Xu et al.). The cells were seeded into 96 well plates at a density of 2×10^4 cells per well and cultured in DMEM/F12 media with 10% fetal bovine serum in the absence of tetracycline to allow pgRNA transcription and HBV DNA replication. One day after seeding, cells were left untreated or treated with a serial dilution of testing compounds, ranging from 50 μM to 0.39 μM, for 48 hours. Cells were then lysed by adding into each well of 100 μl lysis buffer containing 10 mM Tris-HCl (pH 7.6), 1 mM EDTA, 100 mM NaCl and 1% NP-40 and incubated at 37° C. for 30 minutes. Half amount (50 μl) of cell lysate from each well was combined with equal volume of denaturing solution containing 0.5N NaOH and 1.5M NaCl. After 5 minute incubation, 100 µl of neutralization solution (1M Tris-HCl, pH 7.4, 1.5M NaCl) was added into each well. The denatured cell lysates (totally 200 μl) were applied onto Nylon membrane using 96-well dot-blot manifold (Biorad). HBV DNA in the cell lysates were determined by dot-blot hybridization with alpha-^32P-UTP-labelled riboprobe specific for HBV minus strand DNA. The antiviral efficacy of a compound of the disclosure was expressed as the concentration that reduces the amount of HBV DNA by 50% (EC50).

In the case of `O=C(Nc1cccc(Cl)c1)c1scc2c1OCCO2` [Entry 6], the EC50 [1] is reported as 13.5 µM, the capsid formation (HBV capsids) is reported as “did not significantly affect” and the EC50 [2] is reported as 0.4 µM.
